In patent US8603997B2, “siRNA that inhibits WT1 gene expression and uses thereof” (Haruo Sugiyama, priority 2004, dated 2013):

Assays:
HT-1080 cells [1] = experiment: Mitochondrial membrane potential by MitoLight staining and flow cytometry, HT-1080; assay type: cell-based; settings: HT-1080, 72 hours, compared to mock vector treatment
Description: (§1) To elucidate whether the vector-based WT1 siRNA-induced apoptosis takes place through a mitochondria-mediated pathway, the WT1-expressing cell line HT-1080 cells and the non-WT1-expressing cell line PC14 cells were both treated with WRI-4m and a mock vector respectively. 72 hours later, the state of mitochondrial membrane potential was analyzed by MitoLight staining followed by flow cytometry.
(§2) The change in mitochondrial membrane potential (ΔΨm) due to apoptosis induction was analyzed using the MitoLight apoptosis detection kit (Chemicon). Cells after apoptosis induction were incubated at 37° C. in a buffer containing MitoLight (a mitochondria staining dye) for 15 minutes, and then analyzed on a FACScan FL2 channel.

PC-14 [2] = experiment: Apoptosis by Annexin V-FITC/PI flow cytometry, PC-14; assay type: cell-based; settings: PC-14 (non-WT1-expressing)
Description: (§3) To elucidate the mechanism of cancer cell growth suppression by vector-based WT1 siRNAs, induction of apoptosis in cells subjected to a vector-based WT1 siRNA treatment was analyzed. Two WT1-expressing cell lines HT-1080 and AZ-521, and a non-WT1-expressing cell line PC-14 were subjected to the WRI-4m treatment, double-stained with AnnexinV-FITC and PI, and then analyzed by flow cytometry.
(§4) Apoptosis analysis by flow cytometry was carried out by the following steps. First, to detect apoptosed cells, 1.0×10^5 cells were washed with PBS, and then the cells were stained by reaction with Annexin V-FITC and PI at room temperature for 15 minutes, using the MEBCYTO Apoptosis kit (Medical and Biological Laboratories Co., Ltd, Nagoya, Japan). Upon analysis of these cells using a FACScan flowcytometer (Becton Dickinson, San Jose, Calif.), Annexin V-FITC-positive cells were defined as apoptosed cells.

SW620 colon cancer cells = experiment: Cell count 72 hours after vector introduction, SW620; assay type: cell-based; settings: SW620, cell count 72 hours later
Description: (§5) Treatments with the siRNA vectors and mock vector were carried out in the following steps. Cells were plated onto a 6-well plate, and on the next day, the WT1-siRNA expression vectors and mock vector were transiently expressed by lipofection using FuGENE 6 (Roche). Three days later, the cells were trypsinized and the number of cells was counted. The WT1 protein expression level in these cells was analyzed by Western blotting.
(§6) Furthermore, to investigate whether two types of vector-based WT1 siRNAs (WRI-4m and WRI-16m) can suppress the growth of various WT1-expressing cancer cells, these vectors were introduced into three WT1-expressing cell lines: AZ-521 gastric cancer cells, SW620 colon cancer cells, and HL-60 leukemia cells, and the number of cells were counted 72 hours later.

HT-1080 cells [3] = experiment: Apoptosis by Annexin V-FITC/PI flow cytometry, HT-1080; assay type: cell-based
Description: as §3, §4

PC-14 [4] = experiment: Mitochondrial membrane potential by MitoLight staining and flow cytometry, PC-14; assay type: cell-based; settings: PC-14 (non-WT1-expressing), 72 hours
Description: as §1, §2

AZ-521 cells = experiment: Apoptosis by Annexin V-FITC/PI flow cytometry, AZ-521; assay type: cell-based
Description: as §3, §4

cancer cells [5] = experiment: Mitochondrial membrane potential after combined treatment (flow cytometry); assay type: cell-based; settings: compared to anticancer agent alone
Description: as §2
Combined use of an siRNA vector with a chemotherapeutic agent or a death ligand, was carried out by the following steps. Cells were plated onto a 6-well plate, and on the next day, the vector-based WT1 siRNA and mock vector were transiently expressed by lipofection using FuGENE 6 (Roche), and 48 hours later, the cells were treated for another 24 hours with 25 μM etoposide (WAKO), 0.2 μM doxorubicin (Sigma), or […] of TNF-related apoptosis-inducing ligand (TRAIL) (Peprotech).
Mitochondrial membrane potential after combined treatment using vector-based WT1 siRNA with doxorubicin, etoposide, and TRAIL, respectively, was evaluated by flow cytometry.

[6] = tested on: HT-1080 fibrosarcoma cells (WT1-expressing); experiment: Cell count 72 hours after introducing vector-based WT1 siRNAs, HT-1080; settings: HT-1080, cell count 72 hours after introduction, versus mock vector
Description: as §5
To analyze the effect of vector-based WT1 siRNAs on cell growth, the number of cells was counted 72 hours after introducing the six types of vector-based WT1 siRNAs, loop1-WRI-4, WRI-4, WRI-4m, WRI-16m, WRI-17m, and WRI-18m, and a mixture of WRI-4m, WRI-16m, WRI-17m, and WRI-18m, respectively. […] Among the WT1 siRNAs, WRI-4m suppressed growth by 90% or more. In contrast, in PC-14 lung cancer cells (a non-WT1-expressing cell line), cell growth was not suppressed by any of the six vector-based WT1 siRNA treatments (FIG. 6).

cancer cells [7] = experiment: Release of cytochrome c from mitochondria into cytoplasm after combined treatment (Western blot); assay type: cell-based
Description: Western blot analysis was carried out by the following steps. Cells transiently expressing the siRNA expression vectors and mock vector were dissolved in an SDS sample buffer, and proteins were separated by SDS-PAGE and then blotted onto a PVDF membrane. Color was developed using a BCIP-NBT kit with the anti-WT1 antibody C-19 (Santa Cruz Biotechnology), an anti-cytochrome C antibody (Pharmingen), or an anti-GAPDH antibody (Chemicon) as a primary antibody, and an ALP-conjugated anti-rabbit or anti-mouse antibody (Santa Cruz Biotechnology) as a second antibody.
Combined use of an siRNA vector with a chemotherapeutic agent or a death ligand, was carried out by the following steps. […]
To reveal that enhancement of cell growth suppression due to combined use of vector-based WT1-siRNA with an anticancer agent is caused by enhancing the induction of mitochondria-mediated apoptosis, the release of cytochrome c from mitochondria into cytoplasm which takes place after combined treatment of vector-based WT1-siRNA with doxorubicin or etoposide was analyzed.
The release of cytochrome c from mitochondria into cytoplasm was analyzed by the following steps. […]

[8] = tested on: AZ-521 gastric cancer cells; experiment: Cell count 72 hours after vector introduction, AZ-521; assay type: cell-based; settings: AZ-521, cell count 72 hours later
Description: as §5, §6

HL-60 leukemia cells = experiment: Cell count 72 hours after vector introduction, HL-60; assay type: cell-based; settings: HL-60, cell count 72 hours later
Description: as §5, §6

## WRI-4m: siRNA vector, loop 2, target positions 1150-1179 (SEQ ID NO: 9), mutated sense strand SEQ ID NO: 11 (sense AGCTCCAGCTTAGTGAAGTGGGTAGGAGGG)
HT-1080 cells [1]
  loss of the mitochondrial membrane potential: significantly induced
PC-14 [2]
  apoptosis induction: did not induce apoptosis
SW620 colon cancer cells
  growth compared to mock vector treatment: significantly suppressed
HT-1080 cells [3]
  apoptosis induced (Annexin V-FITC-positive cells): 71.1%
PC-14 [4]
  loss of the mitochondrial membrane potential: did not induce
AZ-521 cells
  apoptosis induced (Annexin V-FITC-positive cells): 40.6%
Cancer cells [5]; combined treatment with doxorubicin
  loss of mitochondrial membrane potential: significantly enhanced
Cancer cells [5]; combined treatment with etoposide
  loss of mitochondrial membrane potential: significantly enhanced
[6]
  growth suppression: ≥ 90%
Cancer cells [7]; combined treatment with doxorubicin (0.2 μM, 24 hours)
  release of cytochrome c into cytoplasm: enhanced
Cancer cells [7]; combined treatment with etoposide (25 μM, 24 hours)
  release of cytochrome c into cytoplasm: enhanced
[8]
  growth compared to mock vector treatment: significantly suppressed
HL-60 leukemia cells
  growth compared to mock vector treatment: significantly suppressed
